In patent US8592383B2, “Cycloalkyl-fused tetrahydroquinolines as CRTH2 receptor modulators” (Merck Sharp & Dohme Corp., priority 2011, dated 2013) one finds Ki data, which are given here for 26 compounds.

The structures appear in SMILES notation.

The first experiment deals with T1, hCRTH2 (Homo sapiens, UniProt Q9Y5Y4).
T1 sequence (Q9Y5Y4 1-395): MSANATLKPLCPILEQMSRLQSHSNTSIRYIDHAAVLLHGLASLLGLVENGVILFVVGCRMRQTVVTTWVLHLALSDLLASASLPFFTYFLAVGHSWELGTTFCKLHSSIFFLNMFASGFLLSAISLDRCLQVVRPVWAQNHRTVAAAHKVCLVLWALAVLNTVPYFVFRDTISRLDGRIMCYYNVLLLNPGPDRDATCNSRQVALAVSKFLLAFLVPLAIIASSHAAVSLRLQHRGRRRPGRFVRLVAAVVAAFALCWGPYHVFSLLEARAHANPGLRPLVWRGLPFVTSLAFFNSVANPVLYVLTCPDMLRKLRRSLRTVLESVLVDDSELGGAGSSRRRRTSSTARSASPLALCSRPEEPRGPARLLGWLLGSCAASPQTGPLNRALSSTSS
Set-up: expressed in transfected cells; host or cells: HEK (human embryonic kidney) cells expressing hCRTH2. The settings on record: Radioligand Binding Assay B; 0.7 nM [3H]PGD2, HEK-hCRTH2 membranes. The procedure:
The filters were then washed with 4 mL of the same buffer and residual radioligand bound to the filter was determined by liquid scintillation counting following equilibration in 25 μl Ultima Gold F™ (Unifilter) (Packard).
For `O=C(O)CCC(=O)N(C1CC1)C1c2ccccc2N(C(=O)Oc2ccccc2)C2CCCC21` (racemic) [21K, 4-{cyclopropyl[cis, cis-4-(phenoxycarbonyl)-2,3,3a,4,9,9a-hexahydro-1H-cyclopenta[b]quinolin-9-yl]amino}-4-oxobutanoic acid], affinity was put at a Ki of 905 nM. As to `O=C(O)CCC(=O)N(C1CC1)C1c2ccccc2N(C(=O)c2ccc(Cl)cc2)C2CCCC21` (racemic) [14K, 4-[{cis,cis-4-[(4-chlorophenyl)carbonyl]-2,3,3a,4,9,9a-hexahydro-1H-cyclopenta[b]quinolin-9-yl}(cyclopropyl)amino]-4-oxobutanoic acid], the Ki is 18.4 nM.

On to `O=C(O)CCC(=O)N(C1CC1)[C@@H]1c2ccc(F)cc2N(C(=O)OCc2ccccc2)[C@@H]2CCC[C@@H]21` (racemic) [compound 16, 4-[{cis,cis-4-[(Benzyloxy)carbonyl]-6-fluoro-2,3,3a,4,9,9a-hexahydro-1H-cyclopenta[b]quinolin-9-yl}(cyclopropyl)amino]-4-oxobutanoic acid], for which the Ki came to 2.7 nM.

The experiment is the same for the next values; noted with them: Radioligand Binding Assay B; Table B, rated A-D.
Consider `O=C(O)CCC(=O)N(C1CC1)C1c2ccccc2N(C(=O)Oc2ccccc2)C2CCCC21` (racemic) [21K, 4-{cyclopropyl[cis, cis-4-(phenoxycarbonyl)-2,3,3a,4,9,9a-hexahydro-1H-cyclopenta[b]quinolin-9-yl]amino}-4-oxobutanoic acid], for which the Ki was 201 to 7500 nM. `O=C(O)CCC(=O)N(c1ccccc1)C1c2ccccc2N(C(=O)c2ccccc2)C2CCCC21` (racemic) [12E, 4-oxo-4-{phenyl[cis,cis-4-(phenylcarbonyl)-2,3,3a,4,9,9a-hexahydro-1H-cyclopenta[b]quinolin-9-yl]amino}butanoic acid]: the Ki was in the range of 5.1 to 20 nM.

Regarding `COC(=O)CCC(=O)N(c1ccccc1)C1c2ccccc2N(C(=O)c2cccnc2)C2CCCC21` (racemic) [12B, methyl 4-oxo-4-{phenyl[cis, cis-4-(pyridin-3-ylcarbonyl)-2,3,3a,4,9,9a-hexahydro-1H-cyclopenta[b]quinolin-9-yl]amino}butanoate], the Ki lay in the range of 20.1 to 200 nM. The compound `O=C(O)CCC(=O)N(C1CC1)C1c2ccccc2N(C(=O)c2ccc(Cl)cc2)C2CCCC21` (racemic) [14K, 4-[{cis,cis-4-[(4-chlorophenyl)carbonyl]-2,3,3a,4,9,9a-hexahydro-1H-cyclopenta[b]quinolin-9-yl}(cyclopropyl)amino]-4-oxobutanoic acid] yielded a Ki of 5.1 to 20 nM. Still for that read-out and setting: with `COC(=O)CCC(=O)N(C1CC1)C1c2ccccc2N(C(=O)c2ccsc2)C2CCCC21` (racemic) [14o, methyl 4-{cyclopropyl[cis,cis-4-(thiophen-3-ylcarbonyl)-2,3,3a,4,9,9a-hexahydro-1H-cyclopenta[b]quinolin-9-yl]amino}-4-oxobutanoate] the figure was 201 to 7500 nM.

In turn, `CN(C(=O)CCCC(=O)O)C1c2ccccc2N(C(=O)c2ccc(OC(F)(F)F)cc2)C2CCCC12` (racemic) [17o, 5-[[cis,cis-2,3,3a,4,9,9a-hexahydro-4-[4-(trifluoromethoxy)benzoyl]-1H-cyclopenta[b]quinolin-9-yl]methylamino]-5-oxopentanoic acid] displayed a Ki of 201 to 7500 nM. Still for that read-out and setting: next, `O=C(O)CCC(=O)N(C1CC1)[C@@H]1c2ccccc2N(S(=O)(=O)c2ccccc2)[C@@H]2CCC[C@H]12` (racemic) [compound 24, 4-[Cyclopropyl[cis,cis-2,3,3a,4,9,9a-hexahydro-4-(phenylsulfonyl)-1H-cyclopenta[b]quinolin-9-yl]amino]-4-oxobutanoic acid]: 20.1 to 200 nM. For `O=C(O)CCC(=O)N(C1CC1)C1c2ccccc2N(C(=O)OCc2ccncc2)C2CCCC21` (racemic) [21J, 4-(cyclopropyl{cis, cis-4-[(pyridin-4-ylmethoxy)carbonyl]-2,3,3a,4,9,9a-hexahydro-1H-cyclopenta[b]quinolin-9-yl}amino)-4-oxobutanoic acid], the Ki was 201 to 7500 nM. For `O=C(c1ccccc1)N1c2ccccc2[C@@H](N(C(=O)OCCO)C2CC2)[C@H]2CCC[C@H]21` (racemic) [compound 29, 2-Hydroxyethyl cyclopropyl[cis,cis-4-(phenylcarbonyl)-2,3,3a,4,9,9a-hexahydro-1H-cyclopenta[b]quinolin-9-yl]carbamate], the Ki lay within 201 to 7500 nM.

`COC(=O)CCC(=O)N(C1CC1)C1c2ccc(F)cc2N(C(=O)c2cccnc2)C2CCCC21` (racemic) [16A, Methyl 4-{cyclopropyl[cis,cis-6-fluoro-4-(pyridin-3-ylcarbonyl)-2,3,3a,4,9,9a-hexahydro-1H-cyclopenta[b]quinolin-9-yl]amino}-4-oxobutanoate]: the Ki fell in the range of 201 to 7500 nM. On the same count and under the same terms, with `COc1ccc(COC(=O)N2c3ccccc3C(N(C(=O)CCC(=O)O)C3CC3)C3CCCC32)cc1` (racemic) [21E, 4-{cyclopropyl[cis, cis-4-{[(4-methoxybenzyl)oxy]carbonyl}-2,3,3a,4,9,9a-hexahydro-1H-cyclopenta[b]quinolin-9-yl]amino}-4-oxobutanoic acid] the figure was 20.1 to 200 nM; with `Cn1c(C(=O)N2c3ccccc3C(N(C(=O)CCC(=O)O)C3CC3)C3CCCC32)cc2ccccc21` (racemic) [14D, 4-(cyclopropyl{cis,cis-4-[(1-methyl-1H-indol-2-yl)carbonyl]-2,3,3a,4,9,9a-hexahydro-1H-cyclopenta[b]quinolin-9-yl}amino)-4-oxobutanoic acid], 5.1 to 20 nM.

In the case of `O=C(O)CCC(=O)N(C1CC1)C1c2ccccc2N(S(=O)(=O)c2ccc(OC(F)(F)F)cc2)C2CCCC12` (racemic) [24D, 4-[cyclopropyl[cis,cis-2,3,3a,4,9,9a-hexahydro-4-[[4-(trifluoromethoxy)phenyl]sulfonyl]-1H-cyclopenta[b]quinolin-9-yl]amino]-4-oxobutanoic acid], the Ki lay within 20.1 to 200 nM. The same measure, in the same setting: next, `CN(C(=O)CCCC(=O)O)C1c2ccccc2N(C(=O)c2ccccc2)C2CCCC12` (racemic) [17N]: 201 to 7500 nM; `COC(=O)CCC(=O)N(C1CC1)C1c2ccc(F)cc2N(C(=O)OCc2ccccc2)C2CCCC21` (racemic) [compound 15, Benzyl cis,cis-9-[cyclopropyl(4-methoxy-4-oxobutanoyl)amino]-6-fluoro-1,2,3,3a,9,9a-hexahydro-4H-cyclopenta[b]quinoline-4-carboxylate]: 20.1 to 200 nM; `COC(=O)CCC(=O)N(C1CC1)C1c2ccccc2N(C(=O)c2cc3ccccc3n2C)C2CCCC21` (racemic) [14N, methyl 4-(cyclopropyl{cis,cis-4-[(1-methyl-1H-indol-2-yl)carbonyl]-2,3,3a,4,9,9a-hexahydro-1H-cyclopenta[b]quinolin-9-yl}amino)-4-oxobutanoate]: 201 to 7500 nM. As for `O=C(O)CCC(=O)N(C1CC1)[C@@H]1c2ccccc2N(C(=O)c2ccccc2)[C@@H]2CCC[C@@H]21` (racemic) [compound 14, 4-[[cis,cis-4-Benzoyl-2,3,3a,4,9,9a-hexahydro-1H-cyclopenta[b]quinolin-9-yl](cyclopropyl)amino]-4-oxobutanoic acid], the Ki lay within 5.1 to 20 nM. With `CN(C(=O)N1c2ccccc2C(N(C(=O)CCC(=O)O)C2CC2)C2CCCC21)c1ccccc1` (racemic) [23D, 4-(cyclopropyl{cis, cis-4-[methyl(phenyl)carbamoyl]-2,3,3a,4,9,9a-hexahydro-1H-cyclopenta[b]quinolin-9-yl}amino)-4-oxobutanoic acid], the Ki was 20.1 to 200 nM. Turning to `O=C(O)CCC(=O)N(C1CC1)[C@@H]1c2ccc(F)cc2N(C(=O)OCc2ccccc2)[C@@H]2CCC[C@@H]21` (racemic) [compound 16, 4-[{cis,cis-4-[(Benzyloxy)carbonyl]-6-fluoro-2,3,3a,4,9,9a-hexahydro-1H-cyclopenta[b]quinolin-9-yl}(cyclopropyl)amino]-4-oxobutanoic acid], the Ki was 1 to 5 nM.

In the case of `O=C(O)CCC(=O)N(C1CC1)C1c2ccccc2N(C(=O)c2ccc(OC(F)(F)F)cc2)C2CCCC21` (racemic) [14C, 4-{cyclopropyl[cis,cis-4-{[4-(trifluoromethoxy)phenyl]carbon-yl}-2,3,3a,4,9,9a-hexahydro-1H-cyclopenta[b]quinolin-9-yl]amino}-4-oxobutanoic acid], the Ki was in the range of 5.1 to 20 nM. Take `CCN(c1nc(C(=O)O)cs1)[C@@H]1c2ccccc2N(C(=O)OCc2ccccc2)[C@@H]2CCC[C@H]12` (racemic) [compound 39, 2-[{cis,cis-4-[(Benzyloxy)carbonyl]-2,3,3a,4,9,9a-hexahydro-1H-cyclopenta[b]quinolin-9-yl}(ethyl)amino]-1,3-thiazole-4-carboxylic acid]: the Ki was 20.1 to 200 nM. The compound `O=C(O)CCC(=O)N(C1CC1)C1c2ccccc2N(C(=O)n2ccnc2)C2CCCC21` (racemic) [23B, 4-{cyclopropyl[cis, cis-4-(1H-imidazol-1-ylcarbonyl)-2,3,3a,4,9,9a-hexahydro-1H-cyclopenta[b]quinolin-9-yl]amino}-4-oxobutanoic acid] had a Ki of 20.1 to 200 nM. Regarding `O=C(O)CCC(=O)N(C1CC1)C1c2ccccc2N(C(=O)Oc2ccc(F)cc2)C2CCCC21` (racemic) [21B, 4-(cyclopropyl{cis, cis-4-[(4-fluorophenoxy)carbonyl]-2,3,3a,4,9,9a-hexahydro-1H-cyclopenta[b]quinolin-9-yl}amino)-4-oxobutanoic acid], the Ki fell in the range of 201 to 7500 nM.

In the case of `O=C(O)CCC(=O)N(C1CC1)C1c2ccccc2N(c2nnc(-c3ccc(OC(F)(F)F)cc3)o2)C2CCCC21` (racemic) [36C, racemic 4-{cyclopropyl[cis, cis-4-{5-[4-trifluoro-(methoxy)phenyl]-1,3,4-oxadiazol-2-yl}-2,3,3a,4,9,9a-hexahydro-1H-cyclopenta[b]quinolin-9-yl]amino}-4-oxobutanoic acid], the Ki fell in the range of 201 to 7500 nM.

Compound `O=C(O)COC(=O)N(C1CC1)C1c2ccccc2N(c2nnc(-c3ccccc3)o2)C2CCCC21` (racemic) [compound 37, ({Cyclopropyl[cis,cis-4-(5-phenyl-1,3,4-oxadiazol-2-yl)-2,3,3a,4,9,9a-hexahydro-1H-cyclopenta[b]quinolin-9-yl]carbamoyl}oxy)acetic acid] yielded an inhibition constant Ki of 5.1 to 20 nM. The compound `O=C(O)COC(=O)N(C1CC1)[C@@H]1c2ccccc2N(C(=O)c2ccccc2)[C@@H]2CCC[C@@H]21` (racemic) [compound 30, ({Cyclopropyl[cis,cis-4-(phenylcarbonyl)-2,3,3a,4,9,9a-hexahydro-1H-cyclopenta[b]quinolin-9-yl]carbamoyl}oxy)acetic acid] gave a Ki of 5.1 to 20 nM.

Usually Ki stands for the dissociation constant of the complex between target and ligand, obtained from inhibition or displacement. A low value points to tighter binding.
